Reference: paper PMC7118210 (Frontiers in Pharmacology, 2020)

Columns and labels:
[1] = Stability of naringin and naringenin in human feces with active enzymes; format: in vitro ADME; details: human feces in normal saline, 37°C for 12 h (over night)
Method: Next, 9-fold normal saline, instead of ninefold methanol-normal saline (2:1, v/v), was added to maintain enzyme activity in the feces. […] These samples were maintained at 37°C for 12 h.

[2] = Metabolites in rat kidney microsomes (system III-rat); format: in vitro ADME, Sprague-Dawley rat
Method: Then, NADPH-B (10 μl) was added and incubated for 2 h. […] Then, UDPGA (50 μl) was added and incubated for 2 h. […] Then, UDPGA (50 μl) was added and incubated for 2 h. In addition, the naringenin solution (1 mM, 10 μl) was evaluated in rat systems I, II, and III as above.
The incubated solution (500 μl) of systems I-rat, II-rat, III-rat, I-human, and II-human were extracted with ethyl acetate (500 μl) for at least 3 min by vortexing and centrifuged for 10 min at 13,000 rpm and 4°C. The extraction process described above was performed twice and all supernatants were transferred into centrifuge tubes, dried with N2, and dissolved with methanol-water (1:1, v/v). All samples were injected into a UPLC/Q-TOF-MS system consisting of a Waters Acquity ultra performance liquid chromatography (UPLC) coupled with a Micromass micro™ quadrupole time-of-flight mass spectrometry (Q-TOF-MS) system (Waters Corp., Milford, MA, USA), equipped with an electrospray ionization source, and controlled by the MassLynx (v. 4.1) software. Separation was performed on a Waters Acquity UPLC BEH C18 column (50 mm × 2.1 mm, 1.7 μm) at 40°C. […] Compounds were detected with accurate mass using leucine enkephalin for mass correction at 554.2615 (m/z) in negative ionization mode.

CYP 2C9 = biological target: T1, CYP 2C9 (Homo sapiens, UniProt P11712); test: CYP enzyme pathway, human liver microsomes with sulfaphenazole (system III-human); format: in vitro ADME; details: CYP2C9, major metabolic enzyme; of six metabolites measured in system III-human
T1 construct: human liver microsomes (2.25 μl); tissue RILD Research Institute for Live Diseases (Shanghai, China) Co.Ltd; host or cells: human liver microsomes, 10-donor pooled
T1 sequence (P11712 whole entry): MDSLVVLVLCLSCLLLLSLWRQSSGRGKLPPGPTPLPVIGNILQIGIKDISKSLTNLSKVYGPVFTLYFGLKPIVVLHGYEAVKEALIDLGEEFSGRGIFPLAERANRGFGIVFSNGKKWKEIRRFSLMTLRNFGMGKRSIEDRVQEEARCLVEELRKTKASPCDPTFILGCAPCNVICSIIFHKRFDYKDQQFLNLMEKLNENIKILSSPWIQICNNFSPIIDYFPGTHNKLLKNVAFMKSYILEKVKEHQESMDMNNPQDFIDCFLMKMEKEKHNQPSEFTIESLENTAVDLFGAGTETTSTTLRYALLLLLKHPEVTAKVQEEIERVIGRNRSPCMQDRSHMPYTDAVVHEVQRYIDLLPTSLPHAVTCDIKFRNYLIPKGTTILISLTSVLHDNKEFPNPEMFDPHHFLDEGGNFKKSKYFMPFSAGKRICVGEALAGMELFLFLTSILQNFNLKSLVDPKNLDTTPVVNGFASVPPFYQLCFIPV
Method: (§1) Five single inhibitor working solutions were separately added. Their concentrations were as follows: α-naphthoflavone (0.04 mM) for CYP 1A2, sulfaphenazole (0.8 mM) for CYP 2C9, (+/-)-N-3-benzylnirvanol (0.8 mM) for CYP 2C19, quinidine (0.08 mM) for CYP 2D6, and ketoconazole (0.04 mM) for CYP 3A4/5. All protein concentrations were 0.15 mg ml^-1 in the incubation system, except 0.3 mg ml^-1 for the sulfaphenazole working solution. Then, NADPH (10 mM, 30 μl) was added and the mixed solution incubated for 45 min. Finally, cold acetonitrile (600 μl, containing 100 ng ml^-1 flufenamic acid) was added to every tube, mixed by vortexing, centrifuged for 30 min at 14,000 g and 4°C, and the supernatants transferred into centrifuge tubes and injected into the UHPLC/MS/MS system as described above. Incubations were run in triplicate experiments.
(§2) To analyze compounds in incubation system III-human, a Luna C18 column (Phenomenex Inc., Torrance, CA, USA; 2.0 mm × 50 mm, 5 μm) was used at 40°C. The mobile phase consisted of 0.1% formic acid (v/v) in water (A) and 0.1% formic acid in acetonitrile (B). […] The injection volume was 10 μl with flow rate of 0.2 ml min^-1. The compounds were detected by multiple reaction monitoring in the negative ion electrospray mode.

CYP 2D6 = biological target: T2, CYP 2D6 (Homo sapiens, UniProt P10635); test: CYP enzyme pathway, human liver microsomes with quinidine (system III-human); format: in vitro ADME; details: CYP2D6; of six metabolites measured in system III-human
T2 construct: human liver microsomes (2.25 μl); tissue RILD Research Institute for Live Diseases (Shanghai, China) Co.Ltd; host or cells: human liver microsomes, 10-donor pooled
T2 sequence (P10635 whole entry): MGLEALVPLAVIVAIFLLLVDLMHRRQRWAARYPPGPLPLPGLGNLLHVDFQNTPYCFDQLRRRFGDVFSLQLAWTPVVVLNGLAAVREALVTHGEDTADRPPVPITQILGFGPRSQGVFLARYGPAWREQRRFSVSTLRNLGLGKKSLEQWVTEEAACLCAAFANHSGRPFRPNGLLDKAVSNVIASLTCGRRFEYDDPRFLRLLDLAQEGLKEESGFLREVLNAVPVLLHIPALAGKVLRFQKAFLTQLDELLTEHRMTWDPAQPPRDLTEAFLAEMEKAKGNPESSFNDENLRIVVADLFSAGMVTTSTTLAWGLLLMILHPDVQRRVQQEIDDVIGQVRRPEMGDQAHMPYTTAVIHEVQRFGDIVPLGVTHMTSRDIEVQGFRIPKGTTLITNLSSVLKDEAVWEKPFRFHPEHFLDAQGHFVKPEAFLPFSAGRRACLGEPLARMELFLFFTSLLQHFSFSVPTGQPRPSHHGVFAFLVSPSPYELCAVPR
Method: as §1, §2

CYP 2C19 = biological target: T3, CYP 2C19 (Homo sapiens, UniProt P33261); test: CYP enzyme pathway, human liver microsomes with (+/-)-N-3-benzylnirvanol (system III-human); format: in vitro ADME; details: CYP2C19; of six metabolites measured in system III-human
T3 construct: human liver microsomes (2.25 μl); tissue RILD Research Institute for Live Diseases (Shanghai, China) Co.Ltd; host or cells: human liver microsomes, 10-donor pooled
T3 sequence (P33261 whole entry): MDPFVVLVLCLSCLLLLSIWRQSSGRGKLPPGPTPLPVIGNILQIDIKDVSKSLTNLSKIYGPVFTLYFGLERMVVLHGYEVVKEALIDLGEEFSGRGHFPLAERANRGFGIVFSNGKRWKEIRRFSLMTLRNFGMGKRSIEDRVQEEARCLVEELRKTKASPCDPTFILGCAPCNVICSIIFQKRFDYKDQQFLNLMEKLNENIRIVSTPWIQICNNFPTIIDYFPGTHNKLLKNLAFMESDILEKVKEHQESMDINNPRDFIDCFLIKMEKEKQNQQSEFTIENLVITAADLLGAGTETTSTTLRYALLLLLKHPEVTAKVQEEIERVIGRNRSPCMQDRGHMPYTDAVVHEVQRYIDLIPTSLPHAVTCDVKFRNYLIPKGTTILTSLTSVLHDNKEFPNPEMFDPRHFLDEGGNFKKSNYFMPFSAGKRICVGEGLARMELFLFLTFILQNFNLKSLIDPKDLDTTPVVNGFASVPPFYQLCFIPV
Method: as §1, §2

[3] = design: method as in Li P. et al., 2013; details: Sprague-Dawley rats, 16 g kg^-1; ref Li P. et al., 2013; cited from earlier work
[4] = design: method as in Liu M. et al., 2011; Li et al., 2014; details: Sprague-Dawley rats, 1,250 mg kg^-1 day^-1 for 184 days; ref Liu M. et al., 2011; Li et al., 2014; cited from earlier work
CYP 1A2 = biological target: T4, CYP 1A2 (Homo sapiens, UniProt P05177); test: CYP enzyme pathway, human liver microsomes with α-naphthoflavone (system III-human); format: in vitro ADME; details: CYP1A2; of six metabolites measured in system III-human
T4 construct: human liver microsomes (2.25 μl); tissue RILD Research Institute for Live Diseases (Shanghai, China) Co.Ltd; host or cells: human liver microsomes, 10-donor pooled
T4 sequence (P05177 whole entry): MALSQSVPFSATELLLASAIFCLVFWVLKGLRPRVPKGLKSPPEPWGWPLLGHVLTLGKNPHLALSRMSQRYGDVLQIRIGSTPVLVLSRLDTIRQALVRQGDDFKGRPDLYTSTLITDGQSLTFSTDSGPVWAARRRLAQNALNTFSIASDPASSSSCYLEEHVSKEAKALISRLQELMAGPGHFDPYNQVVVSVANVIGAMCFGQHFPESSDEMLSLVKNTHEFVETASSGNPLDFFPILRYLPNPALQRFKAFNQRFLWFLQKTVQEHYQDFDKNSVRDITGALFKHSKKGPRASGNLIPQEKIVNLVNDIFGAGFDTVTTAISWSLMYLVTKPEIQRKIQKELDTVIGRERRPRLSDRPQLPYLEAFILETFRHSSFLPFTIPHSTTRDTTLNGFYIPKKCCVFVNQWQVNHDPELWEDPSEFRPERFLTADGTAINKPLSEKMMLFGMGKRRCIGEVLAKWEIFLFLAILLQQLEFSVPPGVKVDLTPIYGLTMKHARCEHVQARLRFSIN
Method: as §1, §2

CYP 3A4/5 = test: CYP enzyme pathway, human liver microsomes with ketoconazole (system III-human); format: in vitro ADME; details: CYP3A4/5; of six metabolites measured in system III-human
Method: as §1, §2

## O=C1C[C@@H](c2ccc(O)cc2)Oc2cc(O)cc(O)c21 [naringenin, Naringenin]
[1]
  amount detected in feces relative to the amount added: less than 20%
[2]
  found in rat kidney microsomes, incubation of G/S: +

## C[C@@H]1O[C@@H](O[C@H]2[C@H](Oc3cc(O)c4c(c3)O[C@H](c3ccc(O)cc3)CC4=O)O[C@H](CO)[C@@H](O)[C@@H]2O)[C@H](O)[C@H](O)[C@H]1O [naringin, Naringin]
CYP 2C9
  metabolites the enzyme is responsible for: six metabolites
CYP 2D6
  metabolites the enzyme contributes to: three metabolites
CYP 2C19
  metabolites the enzyme contributes to: four metabolites
[3]
  toxicity after a single p.o. bolus dose: no apparent toxicity
[4]
  adverse effects in toxicity study: no adverse effects
CYP 1A2
  metabolites the enzyme contributes to: one metabolite
CYP 3A4/5
  metabolites the enzyme contributes to: two metabolites
